Measured values: US20190343780A1, “LOW DOSE DRUG COMBINATIONS FOR USE IN PREVENTING AND TREATING NEURONAL DAMAGE” (priority 2016, published 2019)
Where two headings read alike, the source gives them in different places.

Columns and labels:
[1] = system: mice, toxic stimulation of NMDA receptors of brain
Procedure: Mice were I.P. administered with 250 mg/kg N-Methyl-D-aspartic acid (NMDA), a neurotoxin causing clonic-tonic seizure and death in 100% of animals by toxic stimulating of NMDA receptors of brain (Leander et al., Brain Res., 1988, Vol. 448 (1), pages 115-120). Rats were I.M. administered with 12 mg/kg Kainic acid to achieve chronic kainate degeneration of the brain by stimulation of AMPA/kainate receptors (Serdyuk et al., Bull. Exp. Biol. Med., 2014, Vol. 157(1), pages 15-17). Chronic kainate degeneration leads to chronic kainate lethality, neurologic disturbances and large weight loss (Serdyuk et al., Bull. Exp. Biol. Med., 2014, Vol. 157(1), pages 15-17).
Animals were then treated with deionized water (control), memantine, epinephrine or combinations of memantine and epinephrine, which were I.P. or I.M administered, as indicated.
Rats were treated as in Example 3.

[2] = system: rats with hemic hypoxia (sodium nitrite); assay: Hemic hypoxia in rats (sodium nitrite 80 mg/kg I.M.), treatment I.M.; assay type: in vivo, rat; conditions: for ED50: Rattus norvegicus, im; for ED50 / Dose with significant anti-hypoxic effect: combination: memantine dose; for Dose with significant anti-hypoxic effect: text summary of Table 1 (hemic and asphyctic hypoxia)
Procedure: (§1) Rats were intra-muscularly (I.M.) administered with 80 mg/kg sodium nitrite to achieve hemic hypoxia (Serdiuk et al., Eksp. Klin. Farmakol., 2000, Vol. 63(6), pages 3-8). Mice were caged in a 100 cm^3 sealed glass chamber to achieve asphyctic hypoxia, which simulates cerebral ischemia (Serdiuk et al., Eksp. Klin. Farmakol., 2000, Vol. 63(6), pages 3-8; Khalili et al., Eur. Rev. Med. Pharmacol. Sci., 2015, Vol. 19(17), pages 3282-3285).
(§2) Rats and mice were treated as in Example 1.

[3] = system: mice with asphyctic hypoxia; assay: Asphyctic hypoxia in mice (sealed 100 cm^3 glass chamber), treatment I.P.; assay type: in vivo; conditions: for ED50: Mus musculus, ip, Dose increasing the life of mice by 50%, combination: memantine dose, read-out: Asphyctic hypoxia (ED50), mg/kg, I.P. admin.
Procedure: as §1, §2

[4] = system: rats with chronic kainate degeneration of the brain (AMPA/kainate receptors); assay: Chronic kainate degeneration in rats (kainic acid 12 mg/kg I.M.), treatment I.M.; assay type: in vivo, rat; conditions: for Chronic Kainate lethality in rats (%) / Rats with heavy neurologic disturbances (%) / Rats with large weight loss (%): I.M.; for Chronic Kainate lethality in rats (%): 2 weeks after kainate; for Rats with heavy neurologic disturbances (%): score 3 to 5 points; for Dose with significant neuroprotective effect: text summary of Table 3 (NMDA lethality and kainate degeneration)
Procedure: Table 3 summarizes the neuroprotective effect of such treatments.
Rats were treated as in Example 3. Table 4 summarizes the neuroprotective effect of such treatments.

[5] = system: rats with hemic hypoxia (sodium nitrite); assay: Hemic hypoxia in rats (sodium nitrite 80 mg/kg), oral treatment; assay type: in vivo, rat; conditions: 40 minutes before sodium nitrite
Procedure: Table 5 summarizes the anti-hypoxic and neuroprotective effects of such treatments.
Rats were treated as in Example 5. Table 6 summarizes the neuroprotective effect of such treatments.

[6] = system: rats with focal cerebral ischemia; conditions: cited from earlier work
[7] = cited from earlier work
[8] = system: rats with chronic kainate degeneration of the brain (AMPA/kainate receptors); assay: Chronic kainate degeneration in rats (kainic acid 12 mg/kg), oral treatment; assay type: in vivo, rat; conditions: for Chronic kainate lethality in rats, % per group: 2 weeks after kainate; for Rats with heavy neurological diseases (%): score 3 to 5 points; for ED50: Rattus norvegicus
Procedure: Rats were either orally administered with 80 mg/kg sodium nitrite to achieve hemic hypoxia, as explained In Example 1, or with 12 mg/kg Kainic acid to achieve chronic kainate degeneration of the brain by stimulation of AMPA/kainate receptors.

[9] = intravenous injection during the first 12 hours after stroke, cited from earlier work
[10] = Dose increasing the life of rats by 50%, read-out: Hemic hypoxia (ED50), mg/kg, I.M. admin.
[11] = text summary of Table 2, span over hemic and asphyctic hypoxia, read-out: ED50, anti-hypoxic effect
[12] = Dose 5 mg/kg (combination: memantine dose)
[13] = Dose 10 mg/kg (combination: memantine dose)

Which results are given for `CNC[C@H](O)c1ccc(O)c(O)c1` [Epinephrine, epinephrine]?
Acute NMDA lethality in mice (%), I.P. admin. ([1]; Dose 0.01 mg/kg): 100 ^ %; Acute NMDA lethality in mice (%), I.P. admin. ([1]; Dose 0.02 mg/kg): 100 ^ %; Acute NMDA lethality in mice (%), I.P. admin. ([1]; Dose 0.1 mg/kg): 30 ^1%; Acute NMDA lethality in mice (%), I.P. admin. ([1]; Dose 0.2 mg/kg): 10 ^2%; Hemic hypoxia, rat life duration (min), I.M. admin. ([2]; Dose 0.01 mg/kg): 63 ± 7 ^ min; Hemic hypoxia, rat life duration (min), I.M. admin. ([2]; Dose 0.02 mg/kg): 69 ± 8 ^ min; Hemic hypoxia, rat life duration (min), I.M. admin. ([2]; Dose 0.1 mg/kg): 113 ± 16 ^2 min; Hemic hypoxia, rat life duration (min), I.M. admin. ([2]; Dose 0.2 mg/kg): 122 ± 19 ^2 min; ED50 [2, 10]: 0.06 ± 0.01 mg/kg; ED50 [2, 11]: 0.06 to 0.12 mg/kg; Dose with significant anti-hypoxic effect [2]: ≥ 0.1 mg/kg; Asphyctic hypoxia, mice life duration (sec), I.P. admin. ([3]; Dose 0.01 mg/kg): 711 ± 79 s; Asphyctic hypoxia, mice life duration (sec), I.P. admin. ([3]; Dose 0.02 mg/kg): 750 ± 90 s; Asphyctic hypoxia, mice life duration (sec), I.P. admin. ([3]; Dose 0.1 mg/kg): 990 ± 123 s; Asphyctic hypoxia, mice life duration (sec), I.P. admin. ([3]; Dose 0.2 mg/kg): 1250 ± 155 ^1 sec; ED50 [3]: 0.12 ± 0.02 mg/kg; Chronic Kainate lethality in rats (%) ([4]; Dose 0.01 mg/kg): 90%; Rats with heavy neurologic disturbances (%) ([4]; Dose 0.01 mg/kg, 7-14 days after kainate): 100 ^ %; Rats with large weight loss (%) ([4]; Dose 0.01 mg/kg, underweight more than 30%, 7-14 days after kainate): 100 ^ %; Chronic Kainate lethality in rats (%) ([4]; Dose 0.02 mg/kg): 80%; Rats with heavy neurologic disturbances (%) ([4]; Dose 0.02 mg/kg, 7-14 days after kainate): 90 ^ %; Rats with large weight loss (%) ([4]; Dose 0.02 mg/kg, underweight more than 30%, 7-14 days after kainate): 80 ^ %; Chronic Kainate lethality in rats (%) ([4]; Dose 0.1 mg/kg): 20 ^1%; Rats with heavy neurologic disturbances (%) ([4]; Dose 0.1 mg/kg, 7-14 days after kainate): 30 ^1%; Rats with large weight loss (%) ([4]; Dose 0.1 mg/kg, underweight more than 30%, 7-14 days after kainate): 20 ^2%; Chronic Kainate lethality in rats (%) ([4]; Dose 0.2 mg/kg): 0 ^2%; Rats with heavy neurologic disturbances (%) ([4]; Dose 0.2 mg/kg, 7-14 days after kainate): 10 ^2%; Rats with large weight loss (%) ([4]; Dose 0.2 mg/kg, underweight more than 30%, 7-14 days after kainate): 0 ^2%; Dose with significant neuroprotective effect ([4]; combination: memantine dose): ≥ 0.1 mg/kg

With `CC12CC3CC(C)(C1)CC(N)(C3)C2` [Memantine, memantine] as the compound, how does the “Acute NMDA lethality in mice (%), I.P. admin.” value [1, 12] read?
Its value is 100 ^ %.

What about the “Acute NMDA lethality in mice (%), I.P. admin.” value [1, 13] of the same compound?
The value was 60 ^ %.

And the “Acute NMDA lethality in mice (%), I.P. admin.” value ([1]; Dose 20 mg/kg)?
Its value is 16 ^1%.

And the “Hemic hypoxia, life of rats (min), Oral admin.” value (from here on “Hemic hypoxia, life of rats”) [5, 12]?
Its value is 62 ± 7 min.

And the “Hemic hypoxia, life of rats” value [5, 13]?
The value was 65 ± 9 min.

And the “Hemic hypoxia, life of rats” value ([5]; Dose 20 mg/kg)?
The value was 73 ± 11 min.

What about the “Effect on brain injury and neurological disorders” value ([6]; prophylactic administration, 20 mg/kg) of the same compound?
Its value is “prevented injury of the brain and reduced neurological disorders”.

What about the “Hemic hypoxia, rat life duration (min), I.M. admin.” value (“Hemic hypoxia, rat life duration” below) [2, 12] of the same compound?
The value was 63 ± 5 ^ min.

And the “Hemic hypoxia, rat life duration” value [2, 13]?
Its value is 77 ± 8 ^ min.

What about the “Hemic hypoxia, rat life duration” value ([2]; Dose 20 mg/kg) of the same compound?
Its value is 86 ± 9 ^1 min.

And the ED50 [2, 10]?
Its ED50 is 18.2 ± 2.3 mg/kg.

And the ED50 [2, 11]?
Its ED50 is 18 to 20 mg/kg.

What about the “Dose with significant anti-hypoxic effect” value [2] of the same compound?
Its value is 20 mg/kg.

What about the “Asphyctic hypoxia, mice life duration (sec), I.P. admin.” value (from here on “Asphyctic hypoxia … I.P. admin.”) [3, 12] of the same compound?
Its value is 850 ± 80 s.

And the “Asphyctic hypoxia … I.P. admin.” value [3, 13]?
The value was 936 ± 93 s.

And the “Asphyctic hypoxia … I.P. admin.” value ([3]; Dose 20 mg/kg)?
Its value is 1070 ± 114 ^1 sec.

What about the ED50 [3] of the same compound?
Its ED50 is 19.9 ± 2.8 mg/kg.

And the “Neurological and cognitive function of stroke patients” value ([7]; 20 mg for 6 months, subacute and recovery phase of stroke)?
The value was “significantly improved neurological and cognitive function”.

And the “Side effects of prolonged use at a high dose” value ([7]; prolonged use, high dose)?
Its value is “development of agitation, insomnia, irritability, and psychosis”.

And the “Chronic Kainate lethality in rats (%)” value [4, 12]?
The value was 90%.

And the “Rats with heavy neurologic disturbances (%)” value ([4]; Dose 5 mg/kg (combination: memantine dose), 7-14 days after kainate)?
The value was 90 ^ %.

And the “Rats with large weight loss (%)” value ([4]; Dose 5 mg/kg (combination: memantine dose), underweight more than 30%, 7-14 days after kainate)?
Its value is 90 ^ %.

What about the “Chronic Kainate lethality in rats (%)” value [4, 13] of the same compound?
Its value is 70%.

And the “Rats with heavy neurologic disturbances (%)” value ([4]; Dose 10 mg/kg (combination: memantine dose), 7-14 days after kainate)?
Its value is 80 ^ %.

What about the “Rats with large weight loss (%)” value ([4]; Dose 10 mg/kg (combination: memantine dose), underweight more than 30%, 7-14 days after kainate) of the same compound?
Its value is 70 ^ %.

What about the “Chronic Kainate lethality in rats (%)” value ([4]; Dose 20 mg/kg) of the same compound?
Its value is 40 ^1%.

And the “Rats with heavy neurologic disturbances (%)” value ([4]; Dose 20 mg/kg, 7-14 days after kainate)?
Its value is 50 ^1%.

What about the “Rats with large weight loss (%)” value ([4]; Dose 20 mg/kg, underweight more than 30%, 7-14 days after kainate) of the same compound?
The value was 40 ^1%.

What about the ED50 ([4]; Rattus norvegicus, im, read-out: Dose reducing the number of rats with a large deficit of weight by 50% (ED50), mg/kg, I.M. admin., underweight more than 30%, 7-14 days after kainate, combination: memantine dose) of the same compound?
Its ED50 is 17.6 ± 2.4 mg/kg.

And the “Dose with significant neuroprotective effect” value ([4]; combination: memantine dose)?
The value was 20 mg/kg.

What about the “Chronic kainate lethality in rats, % per group” value ([8]; Dose 5 mg/kg (combination: memantine dose), oral) of the same compound?
The value was 90%.

What about the “Rats with heavy neurological diseases (%)” value ([8]; Dose 5 mg/kg (combination: memantine dose), oral, 7-14 days after kainate) of the same compound?
The value was 90%.

And the “Rats with large weight loss (%)” value ([8]; Dose 5 mg/kg (combination: memantine dose), oral, underweight more than 30%, 7-14 days after kainate)?
Its value is 90%.

And the “Chronic kainate lethality in rats, % per group” value ([8]; Dose 10 mg/kg (combination: memantine dose), oral)?
Its value is 80%.

What about the “Rats with heavy neurological diseases (%)” value ([8]; Dose 10 mg/kg (combination: memantine dose), oral, 7-14 days after kainate) of the same compound?
The value was 80%.

What about the “Rats with large weight loss (%)” value ([8]; Dose 10 mg/kg (combination: memantine dose), oral, underweight more than 30%, 7-14 days after kainate) of the same compound?
The value was 70%.

What about the “Chronic kainate lethality in rats, % per group” value ([8]; Dose 20 mg/kg, oral) of the same compound?
The value was 60% ^3.

What about the “Rats with heavy neurological diseases (%)” value ([8]; Dose 20 mg/kg, oral, 7-14 days after kainate) of the same compound?
Its value is 70%.

And the “Rats with large weight loss (%)” value ([8]; Dose 20 mg/kg, oral, underweight more than 30%, 7-14 days after kainate)?
The value was 60% ^3.

What about the ED50 ([8]; read-out: Dose decreasing the number of rats with large weight loss by 50% (ED50), mg/kg, Oral admin., underweight more than 30%, 7-14 days after kainate, combination: memantine dose) of the same compound?
Its ED50 is 18.8 ± 2.4 mg/kg.

What about the ED50 ([8]; text summary of Table 6, span over hemic hypoxia and kainate endpoints, oral, combination: memantine dose, read-out: ED50, anti-hypoxic and neuroprotective effects) of the same compound?
The ED50 was 18 to 20 mg/kg.

And the “Dose with significant neuroprotective effects” value ([8]; text summary of Table 5, oral, combination: memantine dose)?
The value was 20 mg/kg.

For `CNC[C@H](O)c1cccc(O)c1` [Phenylephrine, phenylephrine], which “Hemic hypoxia, life of rats” value ([5]; Dose 0.02 mg/kg) is on record?
Its value is 60 ± 7 min.

What about the “Hemic hypoxia, life of rats” value ([5]; Dose 0.05 mg/kg) of the same compound?
The value was 62 ± 9 min.

And the “Hemic hypoxia, life of rats” value ([5]; Dose 0.1 mg/kg)?
Its value is 67 ± 10 min.

What about the “Hemic hypoxia, life of rats” value ([5]; Dose 0.5 mg/kg) of the same compound?
Its value is 77 ± 12 min.

And the “Hemic hypoxia, life of rats” value ([5]; Dose 1.0 mg/kg (combination: memantine dose))?
The value was 88 ± 14 ^1 min.

And the “Effect on infarction and neurological damage” value ([6]; intravenous administration before ligation of the middle cerebral artery)?
The value was “prevented infarction development and reduced neurological damage”.

What about the Cerebral blood flow [9] of the same compound?
Its Cerebral blood flow is “significant improvement in cerebral blood flow”.

What about the “Blood pressure after induced hypertension” value ([9]; from 100-110 mm) of the same compound?
The value was 160-170 mm.
